Data as given in ChEMBL document CHEMBL3608254, “Discovery of novel triazolobenzazepinones as γ-secretase modulators with central Aβ42 lowering in rodents and rhesus monkeys” (Bioorg Med Chem Lett, 2015).
≈ marks a conversion by molar mass, not a printed value. Calls of active or inactive are those of the source. The calls are words filed in the database; no cut-off is given here.

Legend:
[1] = Half life in rat hepatocytes; format: ADME, cell-based, Hepatocyte
[2] = Half life in dog hepatocytes; format: ADME, cell-based, Canis lupus familiaris, Hepatocyte
[3] = Half life in rhesus monkey hepatocytes; format: ADME, cell-based, Macaca mulatta, Hepatocyte
[4] = Half life in human hepatocytes; format: ADME, cell-based, Hepatocyte
[5] = Apparent permeability of the compound in pig LLC-PK1 cells; format: ADME, cell-based, Sus scrofa
Rattus norvegicus [6] = assay: Dose normalized AUC in Wistar-Han rat at 100 mg/kg, po; format: ADME, organism-based; details: in vivo
[7] = Plasma clearance in Sprague-Dawley rat at 1 mg/kg, iv and 2 mg/kg, po; format: ADME, organism-based
[8] = Volume of distribution at steady state in Sprague-Dawley rat at 1 mg/kg, iv and 2 mg/kg, po; format: ADME, organism-based; details: in vivo, read-out: Vdss
[9] = Half life in Sprague-Dawley rat at 1 mg/kg, iv; format: ADME, organism-based; details: in vivo
Rattus norvegicus [10] = assay: Oral bioavailability in Sprague-Dawley rat at 2 mg/kg; format: ADME, organism-based; details: in vivo
Rattus norvegicus [11] = assay: Dose normalized AUC (0 to 24 hrs) in Sprague-Dawley rat at 2 mg/kg, po; format: ADME, organism-based; details: in vivo
[12] = Plasma clearance in dog at 0.25 mg/kg, iv and 0.5 mg/kg, po; format: ADME, organism-based, Canis lupus familiaris
[13] = Volume of distribution at steady state in dog at 0.25 mg/kg, iv and 0.5 mg/kg, po; format: ADME, organism-based, Canis lupus familiaris; details: in vivo, read-out: Vdss
[14] = Half life in dog at 0.25 mg/kg, iv; format: ADME, organism-based, Canis lupus familiaris; details: in vivo
[15] = Oral bioavailability in dog at 0.5 mg/kg; format: ADME, organism-based, Canis lupus familiaris; details: in vivo
Canis familiaris = assay: Dose normalized AUC (0 to 24 hrs) in dog at 0.5 mg/kg, po; format: ADME, organism-based, Canis lupus familiaris; details: in vivo
[16] = Volume of distribution at steady state in rhesus monkey at 0.25 mg/kg, iv and 0.5 mg/kg, po; format: ADME, organism-based, Macaca mulatta; details: in vivo, read-out: Vdss
[17] = Half life in rhesus monkey at 0.25 mg/kg, iv; format: ADME, organism-based, Macaca mulatta; details: in vivo
[18] = Oral bioavailability in rhesus monkey at 0.5 mg/kg; format: ADME, organism-based, Macaca mulatta; details: in vivo
Rhesus monkey [19] = assay: Antialzheimer's disease activity in rhesus monkey cisterna-magna-ported model assessed as reduction of amyloid beta-42 level in CSF at 6 mg/kg bolus dose followed by 4 hrs infusion of 44 mg/kg, iv measured up to 20 hrs; format: functional, organism-based; details: Macaca mulatta
Rhesus monkey [20] = assay: Antialzheimer's disease activity in rhesus monkey cisterna-magna-ported model assessed as reduction of amyloid beta-40 level in CSF at 6 mg/kg bolus dose followed by 4 hrs infusion of 44 mg/kg, iv measured up to 20 hrs; format: functional, organism-based; details: Macaca mulatta
[21] = biological target: Sodium-dependent serotonin transporter (Homo sapiens, UniProt P31645); assay: Inhibition of SERT (unknown origin)
Sequence of Sodium-dependent serotonin transporter (P31645 whole entry, the tested form may be a part): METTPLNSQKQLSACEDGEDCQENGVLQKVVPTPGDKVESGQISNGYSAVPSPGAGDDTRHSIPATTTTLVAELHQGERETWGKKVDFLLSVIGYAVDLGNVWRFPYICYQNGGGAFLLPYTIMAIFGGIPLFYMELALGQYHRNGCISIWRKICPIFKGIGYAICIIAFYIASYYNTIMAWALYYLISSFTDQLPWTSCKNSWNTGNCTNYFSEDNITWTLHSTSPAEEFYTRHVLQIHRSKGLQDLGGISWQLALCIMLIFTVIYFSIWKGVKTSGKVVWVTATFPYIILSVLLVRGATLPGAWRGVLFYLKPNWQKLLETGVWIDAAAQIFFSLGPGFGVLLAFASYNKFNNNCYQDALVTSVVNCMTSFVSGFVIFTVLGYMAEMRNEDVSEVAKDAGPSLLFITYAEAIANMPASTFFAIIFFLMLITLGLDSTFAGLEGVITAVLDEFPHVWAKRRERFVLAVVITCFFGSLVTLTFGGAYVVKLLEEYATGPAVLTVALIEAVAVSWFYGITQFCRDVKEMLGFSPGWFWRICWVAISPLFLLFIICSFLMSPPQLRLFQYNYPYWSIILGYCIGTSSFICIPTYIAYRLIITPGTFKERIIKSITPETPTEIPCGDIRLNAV

Plasma = assay: AUC in plasma of rhesus monkey cisterna-magna-ported model at 6 mg/kg bolus dose followed by 4 hrs infusion of 44 mg/kg, iv; format: ADME, organism-based, Macaca mulatta; details: in vivo
[22] = AUC in cerebrospinal fluid of rhesus monkey cisterna-magna-ported model at 6 mg/kg bolus dose followed by 4 hrs infusion of 44 mg/kg, iv; format: ADME, organism-based, Macaca mulatta
[23] = biological target: T1, Voltage-gated inwardly rectifying potassium channel KCNH2 (Homo sapiens, UniProt Q12809); assay: Inhibition of human ERG expressed in HEK cells assessed as reduction in IKr current by patchXpress assay; format: cell-based, HEK293
T1 sequence (Q12809 whole entry): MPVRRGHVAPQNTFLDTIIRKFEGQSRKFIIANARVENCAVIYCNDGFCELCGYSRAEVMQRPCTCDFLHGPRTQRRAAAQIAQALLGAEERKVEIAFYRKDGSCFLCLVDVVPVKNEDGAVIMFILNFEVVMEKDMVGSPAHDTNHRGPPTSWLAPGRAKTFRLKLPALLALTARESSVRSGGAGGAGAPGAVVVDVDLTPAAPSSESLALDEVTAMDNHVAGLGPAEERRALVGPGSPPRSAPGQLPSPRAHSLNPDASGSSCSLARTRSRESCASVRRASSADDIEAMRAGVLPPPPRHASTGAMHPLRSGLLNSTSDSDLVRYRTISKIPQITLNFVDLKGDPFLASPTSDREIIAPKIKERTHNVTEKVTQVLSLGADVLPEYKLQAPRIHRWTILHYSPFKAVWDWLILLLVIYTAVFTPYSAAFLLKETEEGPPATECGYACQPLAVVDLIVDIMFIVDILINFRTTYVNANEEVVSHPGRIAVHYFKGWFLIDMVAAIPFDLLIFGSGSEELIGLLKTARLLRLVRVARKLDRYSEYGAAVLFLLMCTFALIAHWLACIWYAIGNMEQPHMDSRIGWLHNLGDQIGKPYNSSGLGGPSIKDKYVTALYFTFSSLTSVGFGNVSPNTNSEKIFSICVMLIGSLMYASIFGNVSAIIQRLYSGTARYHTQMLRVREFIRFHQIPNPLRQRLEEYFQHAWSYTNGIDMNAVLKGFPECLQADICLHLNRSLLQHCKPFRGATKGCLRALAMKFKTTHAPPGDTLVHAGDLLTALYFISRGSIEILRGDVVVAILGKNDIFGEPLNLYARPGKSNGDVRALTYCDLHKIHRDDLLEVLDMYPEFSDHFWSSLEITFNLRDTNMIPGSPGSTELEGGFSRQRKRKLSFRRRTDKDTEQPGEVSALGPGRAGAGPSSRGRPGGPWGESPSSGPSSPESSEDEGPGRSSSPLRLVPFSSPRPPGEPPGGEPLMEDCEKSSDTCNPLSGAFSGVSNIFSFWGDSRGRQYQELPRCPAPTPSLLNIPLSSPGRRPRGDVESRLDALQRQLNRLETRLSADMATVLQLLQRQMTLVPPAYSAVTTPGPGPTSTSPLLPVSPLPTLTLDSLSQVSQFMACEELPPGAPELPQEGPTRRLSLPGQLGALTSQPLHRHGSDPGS

Rattus norvegicus [24] = assay: Antialzheimer's disease activity in Sprague-Dawley rat assessed as reduction of amyloid beta-42 level in brain at 100 mg/kg, po after 6 hrs relative to control; format: functional
[25] = Drug level in Sprague-Dawley rat brain at 100 mg/kg, po after 6 hrs; format: ADME, organism-based; details: read-out: Drug uptake
Mus musculus = assay: Antialzheimer's disease activity in po dosed APP-YAC transgenic mouse assessed as reduction of amyloid beta-40/42 level in brain measured after 6 hrs; format: functional
Rattus norvegicus [26] = assay: Antialzheimer's disease activity in po dosed Sprague-Dawley rat assessed as reduction of amyloid beta-40/42 level in brain measured after 6 hrs; format: functional
[27] = Inhibition of gamma-secretase-mediated cleavage of NotchdeltaE in human HeLa cells expressing NotchdeltaE assessed as intracellular release of Notch intracellular domain (NICD)/N-terminal luciferase by luminescent method; format: cell-based
CYP3A4 [28] = biological target: T2, CYP3A4 (Homo sapiens, UniProt P08684); assay: Inhibition of CYP3A4 (unknown origin) at 10 uM; format: ADME
T2 sequence (P08684 whole entry): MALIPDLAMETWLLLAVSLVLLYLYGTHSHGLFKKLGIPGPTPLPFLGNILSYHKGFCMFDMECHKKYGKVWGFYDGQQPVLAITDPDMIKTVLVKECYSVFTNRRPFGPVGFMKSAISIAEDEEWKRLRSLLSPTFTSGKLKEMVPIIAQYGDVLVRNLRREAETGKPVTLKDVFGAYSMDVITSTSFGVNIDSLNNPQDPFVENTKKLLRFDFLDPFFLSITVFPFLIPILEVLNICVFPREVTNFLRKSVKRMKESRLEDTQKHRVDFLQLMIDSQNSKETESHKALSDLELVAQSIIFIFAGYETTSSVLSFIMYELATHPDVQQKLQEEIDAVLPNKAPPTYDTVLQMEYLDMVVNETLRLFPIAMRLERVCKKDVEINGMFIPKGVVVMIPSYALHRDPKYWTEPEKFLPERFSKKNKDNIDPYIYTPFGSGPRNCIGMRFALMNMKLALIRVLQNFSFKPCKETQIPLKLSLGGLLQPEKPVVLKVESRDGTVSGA

CYP2C9 = CYP2C9 (Homo sapiens, UniProt P11712); assay: Inhibition of CYP2C9 (unknown origin) at 10 uM; format: ADME
Sequence of CYP2C9 (P11712 whole entry): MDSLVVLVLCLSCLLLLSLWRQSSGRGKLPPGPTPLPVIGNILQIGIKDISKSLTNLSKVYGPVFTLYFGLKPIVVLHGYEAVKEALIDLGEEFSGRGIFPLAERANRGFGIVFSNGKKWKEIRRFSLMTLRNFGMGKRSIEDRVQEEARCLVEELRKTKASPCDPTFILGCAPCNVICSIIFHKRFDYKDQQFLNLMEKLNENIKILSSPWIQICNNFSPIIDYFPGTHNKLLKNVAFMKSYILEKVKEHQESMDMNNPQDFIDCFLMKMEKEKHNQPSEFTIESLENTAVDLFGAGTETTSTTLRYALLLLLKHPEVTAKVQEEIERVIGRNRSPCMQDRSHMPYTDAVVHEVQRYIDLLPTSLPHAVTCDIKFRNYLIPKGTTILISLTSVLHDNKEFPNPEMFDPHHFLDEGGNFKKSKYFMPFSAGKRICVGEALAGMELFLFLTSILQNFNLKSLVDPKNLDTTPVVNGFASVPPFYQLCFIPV

CYP2D6 = CYP2D6 (Homo sapiens, UniProt P10635); assay: Inhibition of CYP2D6 (unknown origin) at 10 uM; format: ADME
Sequence of CYP2D6 (P10635 whole entry): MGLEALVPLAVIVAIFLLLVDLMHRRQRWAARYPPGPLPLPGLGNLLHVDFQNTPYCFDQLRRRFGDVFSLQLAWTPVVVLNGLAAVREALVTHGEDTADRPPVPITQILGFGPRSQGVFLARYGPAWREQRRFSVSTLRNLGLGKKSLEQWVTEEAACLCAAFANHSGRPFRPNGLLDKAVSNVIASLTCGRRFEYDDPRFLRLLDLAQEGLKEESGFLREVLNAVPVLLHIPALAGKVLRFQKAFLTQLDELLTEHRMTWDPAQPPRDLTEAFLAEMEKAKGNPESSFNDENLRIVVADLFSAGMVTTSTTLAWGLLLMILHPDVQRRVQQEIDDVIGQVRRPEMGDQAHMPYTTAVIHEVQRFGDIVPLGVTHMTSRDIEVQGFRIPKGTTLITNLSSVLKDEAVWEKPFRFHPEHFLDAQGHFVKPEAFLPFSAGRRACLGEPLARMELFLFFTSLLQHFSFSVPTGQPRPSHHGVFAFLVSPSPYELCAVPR

[29] = biological target: T3, Nuclear receptor subfamily 1 group I member 2 (Homo sapiens, UniProt O75469); assay: Activation of PXR (unknown origin); format: ADME
T3 sequence (O75469 whole entry): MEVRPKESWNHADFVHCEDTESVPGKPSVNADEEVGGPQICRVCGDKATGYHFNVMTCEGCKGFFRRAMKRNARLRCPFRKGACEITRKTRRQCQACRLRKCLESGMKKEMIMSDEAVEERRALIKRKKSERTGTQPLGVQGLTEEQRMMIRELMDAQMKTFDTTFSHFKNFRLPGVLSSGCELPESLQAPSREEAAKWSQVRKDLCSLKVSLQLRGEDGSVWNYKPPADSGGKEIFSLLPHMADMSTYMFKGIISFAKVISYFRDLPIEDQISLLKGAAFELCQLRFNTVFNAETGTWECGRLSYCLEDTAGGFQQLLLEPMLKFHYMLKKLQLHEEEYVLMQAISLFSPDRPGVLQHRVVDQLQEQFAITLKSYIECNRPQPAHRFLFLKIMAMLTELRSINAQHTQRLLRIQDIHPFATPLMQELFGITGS

CYP3A4 [30] = biological target: T2, CYP3A4; assay: Time dependent inhibition of CYP3A4 (unknown origin) at 50 uM; format: ADME
[31] = Solubility of the compound at pH 7; format: physicochemical; details: buffer
[32] = Solubility of the compound at pH 2; format: physicochemical; details: buffer
[33] = Lipophilicity, log D of the compound; format: physicochemical; details: octanol/water
[34] = Fraction unbound in rat; format: ADME, organism-based; details: in vivo
[35] = Fraction unbound in dog; format: ADME, organism-based, Canis lupus familiaris; details: in vivo
[36] = Fraction unbound in rhesus monkey; format: ADME, organism-based, Macaca mulatta; details: in vivo
[37] = Fraction unbound in human; format: ADME, organism-based; details: in vivo
[38] = biological target: T1, Voltage-gated inwardly rectifying potassium channel KCNH2
Description: Binding affinity to human ERG expressed in HEK cells by MK-499 radioligand displacement assay

## COc1cc(-c2cn(C3CCc4c(F)cccc4N(CC(F)(F)F)C3=O)nn2)ccc1-n1cnc(C)c1 (stereo not drawn) [GSM1]
[1]
  half-life: 0.6 h
[2]
  half-life: 1.12 h
[3]
  half-life: 0.817 h
[4]
  half-life: 1.02 h
[5]
  Papp: 25 ×10⁻⁶ cm/s
Rattus norvegicus [6]
  AUC/dose: 8.8 µM·kg·h/mg
[7]
  clearance: 38 mL/min/kg
[8]
  Vd: 4.8 L/kg
[9]
  half-life: 0.8 h
Rattus norvegicus [10]
  F: 190%
Rattus norvegicus [11]
  AUCt/dose: 1.6 µM·kg·h/mg
[12]
  clearance: 82 mL/min/kg
[13]
  Vd: 14 L/kg
[14]
  half-life: 6.2 h
[15]
  bioavailability: < 5%
Canis familiaris
  AUCt/dose: 0.1 µM·kg·h/mg
[16]
  Vd: 2 L/kg
[17]
  half-life: 1.2 h
[18]
  bioavailability: < 5%
Rhesus monkey [19]
  Activity: Active
Rhesus monkey [20]
  Activity: inactive
[21]
  IC50: 0.032 µM
Plasma
  AUC: 183 µM·h
[22]
  AUC at 4 h: 2.2 µM·h
[23]
  IC50: 12.9 µM
Rattus norvegicus [24]
  inhibition in vivo at 100 mg/kg: 92%
[25]
  concentration at 6 h: 35 µM
Mus musculus
  ED50: 15 mg/kg
Rattus norvegicus [26]
  ED50: 15 mg/kg
[27]
  IC50: 39.8 µM
CYP3A4 [28]
  inhibition at 10 µM: 42%
CYP2C9
  inhibition at 10 µM: 68%
CYP2D6
  inhibition at 10 µM: 28%
[29]
  EC50: > 30 µM
CYP3A4 [30]
  inhibition at 50 µM: 18%
[31]
  solubility: 5.6 µM (≈ 2.88 µg/mL)
[32]
  solubility: 180 µM (≈ 92.6 µg/mL)
[33]
  logD: 3.3
[34]
  fraction unbound: 0.037
[35]
  fraction unbound: 0.058
[36]
  fraction unbound: 0.057
[37]
  fraction unbound: 0.036
[38]
  IC50: 2.61 µM
